Assay results: article PMC11465068 (Journal of Lipid Research, 2024)

Target: T1, rhSphK1 (recombinant human sphingosine kinase 1) (Homo sapiens, UniProt Q9NYA1)
T1 construct: gene SPHK1; commercial recombinant human enzyme from two manufacturers
Experiment: S1P formation by LC-MS/MS
Format: biochemical
Conditions: […] sphingosine, […] ATP, […] MgCl2, […] °C, […] h; range over two enzyme sources

T1 sequence (Q9NYA1 whole entry): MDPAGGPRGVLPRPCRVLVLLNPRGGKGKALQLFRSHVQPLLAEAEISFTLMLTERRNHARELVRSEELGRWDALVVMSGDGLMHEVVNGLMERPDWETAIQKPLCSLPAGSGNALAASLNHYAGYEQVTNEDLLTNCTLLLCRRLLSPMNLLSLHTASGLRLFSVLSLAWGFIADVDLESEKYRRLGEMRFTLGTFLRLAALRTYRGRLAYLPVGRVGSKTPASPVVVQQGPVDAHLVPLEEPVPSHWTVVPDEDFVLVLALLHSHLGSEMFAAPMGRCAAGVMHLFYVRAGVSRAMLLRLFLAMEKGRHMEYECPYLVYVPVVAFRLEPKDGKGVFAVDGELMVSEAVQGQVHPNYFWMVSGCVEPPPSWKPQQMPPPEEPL

% reduction of S1P formation at 50 μM: 32-34%
Structure (SMILES): O=C(NCc1ccncc1)C12CC3CC(C1)CC(c1ccc(Cl)cc1)(C3)C2 [ABC294640]
